Marks after values point to notes of the source that are not given here.
Test: logP by HPLC (EEC Directive 79/831 Annex V.A8)
Format: physicochemical
[1] = [b] LC-MS, acidic range, pH 2.7, 0.1% aqueous formic acid and acetonitrile
[2] = [c] LC-MS, neutral range, pH 7.8, 0.001 molar aqueous ammonium bicarbonate and acetonitrile

SMILES	logP [1]	logP [2]
Cc1cc(C)cc(CC(=O)N2CCC(c3nc(C(=O)OC4CCCCC4)cs3)CC2)c1 [Example 65]	4.32	4.34
Cc1ccc(CC(=O)N2CCC(c3nc(C(=O)OC4CCCCC4)cs3)CC2)c(C)c1 [Example 66]	4.3	4.33
O=C(OC1CCCCC1)c1csc(C2CCN(C(=S)Nc3cc(F)ccc3F)CC2)n1 [Example 67]	3.86^[b]	
O=C(OC1CCCc2ccccc21)c1csc(C2(F)CCN(C(=O)Cn3nc(C(F)F)cc3C(F)F)CC2)n1 (centres unmarked) [Example 68]	4.12^[b]	
O=C(OC1CCCCC1)c1csc(C2(F)CCN(C(=O)Cn3nc(C(F)F)cc3C(F)F)CC2)n1 [Example 69]	3.91^[b]	
COc1ccc(C)cc1NC(=O)N1CCC(c2nc(C(=O)OC3CCCCC3)cs2)CC1 [Example 71]	4.18^[b]	
Cc1ccc(Cl)cc1NC(=O)N1CCC(c2nc(C(=O)OC3CCCCC3)cs2)CC1 [Example 72]	4.10^[b]	
Cc1noc(C)c1NC(=S)N1CCC(c2nc(C(=O)OC3CCCCC3)cs2)CC1 [Example 73]	3.18^[b]	
Cc1ccc(F)cc1NC(=O)N1CCC(c2nc(C(=O)OC3CCCCC3)cs2)CC1 [Example 74]	3.74^[b]	
COc1ccc(Cl)cc1NC(=O)N1CCC(c2nc(C(=O)OC3CCCCC3)cs2)CC1 [Example 75]	4.35^[b]	
Cc1noc(C)c1NC(=O)N1CCC(c2nc(C(=O)OC3CCCCC3)cs2)CC1 [Example 76]	2.66^[b]	
COc1ccc(OC)c(NC(=O)N2CCC(c3nc(C(=O)OC4CCCc5ccccc54)cs3)CC2)c1 (centres unmarked) [Example 77]	4.05^[b]	
Cc1ccc(C)c(NC(=O)N2CCC(c3nc(C(=O)OC4CCCc5ccccc54)cs3)CC2)c1 (centres unmarked) [Example 78]	4.09^[b]	
Cc1ccc(F)cc1NC(=O)N1CCC(c2nc(C(=O)OC3CCCc4ccccc43)cs2)CC1 (centres unmarked) [Example 79]	4.00^[b]	
Cc1ccc(F)c(NC(=O)N2CCC(c3nc(C(=O)OC4CCCc5ccccc54)cs3)CC2)c1 (centres unmarked) [Example 80]	4.08^[b]	
Cc1ccc(C)c(NC(=S)N2CCC(c3nc(C(=O)OC4CCCc5ccccc54)cs3)CC2)c1 (centres unmarked) [Example 81]	4.39^[b]	
COc1ccc(C)cc1NC(=O)N1CCC(c2nc(C(=O)OC3CCCc4ccccc43)cs2)CC1 (centres unmarked) [Example 82]	4.33^[b]	
O=C(OC1CCCCC1)c1csc(C2CCN(C(=O)CC3CCCC3)CC2)n1 [Example 83]	4.15	4.12
O=C(OCc1ccccc1Br)c1csc(C2CCN(C(=O)Nc3cc(F)ccc3F)CC2)n1 [Example 84]	3.79^[c]; 3.79^[b]	3.79^[c]; 3.79^[b]
Cc1ccc(Cl)cc1NC(=O)N1CCC(c2nc(C(=O)OCc3ccccc3Br)cs2)CC1 [Example 85]	4.04	4.06
Cc1cc(CC(=O)N2CCC(c3nc(C(=O)OC4CCCCC4)cs3)CC2)n(C)n1 [Example 86]	2.6	2.67
O=C(OCc1ccccc1Br)c1csc(C2CCN(C(=O)Cc3cc(Cl)ccc3Cl)CC2)n1 [Example 87]	4.41	4.44
Cc1ccc(C)c(NC(=S)N2CCC(c3nc(C(=O)OCc4ccccc4Br)cs3)CC2)c1 [Example 88]	3.68	3.71

SMILES	logP [1]	logP [2]
Cc1cc(CC(=O)N2CCC(c3nc(C(=O)OC4CCCCC4)cs3)CC2)nn1C [Example 89]	2.66	2.68
Cc1ccc(F)cc1NC(=O)N1CCC(c2nc(C(=O)OCc3ccccc3Br)cs2)CC1 [Example 90]	3.77	3.75
Cc1ccc(C)c(NC(=O)N2CCC(c3nc(C(=O)OCc4ccccc4Br)cs3)CC2)c1 [Example 91]	3.86	3.84
Cc1ccc(F)c(NC(=O)N2CCC(c3nc(C(=O)OCc4ccccc4Br)cs3)CC2)c1 [Example 92]	3.85	3.83
COc1ccc(OC)c(NC(=O)N2CCC(c3nc(C(=O)OC4CCCCC4)cs3)CC2)c1 [Example 93]	3.76^[b]	
Cc1ccc([N+](=O)[O-])cc1NC(=O)N1CCC(c2nc(C(=O)OC3CCCCC3)cs2)CC1 [Example 94]	3.62^[b]	
O=C(OC1CCCc2ccccc21)c1csc(C2CCN(C(=O)Nc3cc(Cl)ccc3Cl)CC2)n1 (centres unmarked) [Example 95]	4.92^[b]	
Cc1ccc(C)c(CC(=O)N2CCC(c3nc(C(=O)OC4CCCc5ccccc54)cs3)CC2)c1 (centres unmarked) [Example 96]	4.54^[b]	
COc1ccc(Cl)cc1NC(=O)N1CCC(c2nc(C(=O)OC3CCCc4ccccc43)cs2)CC1 (centres unmarked) [Example 97]	4.64^[b]	
Cc1noc(C)c1NC(=O)N1CCC(c2nc(C(=O)OC3CCCc4ccccc43)cs2)CC1 (centres unmarked) [Example 98]	2.97^[b]	
O=C(OC1CCCc2ccccc21)c1csc(C2CCN(C(=O)Cc3cc(Cl)ccc3Cl)CC2)n1 (centres unmarked) [Example 99]	4.73^[b]	
Cc1ccc(Cl)c(NC(=O)N2CCC(c3nc(C(=O)OC4CCCc5ccccc54)cs3)CC2)c1 (centres unmarked) [Example 100]	4.61^[b]	
O=C(OCc1ccccc1Br)c1csc(C2CCN(C(=O)Cc3cc(Br)ccc3Br)CC2)n1 [Example 101]	4.68	4.64
Cc1ccc(C)c(CC(=O)N2CCC(c3nc(C(=O)OCc4ccccc4Br)cs3)CC2)c1 [Example 102]	4.23	4.27
COc1ccc(OC)c(NC(=O)N2CCC(c3nc(C(=O)OCc4ccccc4Br)cs3)CC2)c1 [Example 103]	3.83	3.81
COc1ccc(C)cc1NC(=O)N1CCC(c2nc(C(=O)OCc3ccccc3Br)cs2)CC1 [Example 104]	4.08	4.12
COc1ccc(Cl)cc1NC(=O)N1CCC(c2nc(C(=O)OCc3ccccc3Br)cs2)CC1 [Example 105]	4.35	4.36
O=C(OCc1ccccc1Br)c1csc(C2CCN(C(=O)Nc3cc(C(F)(F)F)ccc3Cl)CC2)n1 [Example 106]	4.7	4.75
Cc1ccc(Cl)c(NC(=O)N2CCC(c3nc(C(=O)OCc4ccccc4Br)cs3)CC2)c1 [Example 107]	4.28	4.33
O=C(OCc1ccccc1Br)c1csc(C2CCN(C(=O)Nc3cc(Cl)ccc3Cl)CC2)n1 [Example 108]	4.56	4.61
Cn1nc(C(F)(F)F)cc1OC(=O)N1CCC(c2nc(C(=O)OC3CCCCC3)cs2)CC1 [Example 109]	4.36	4.37
Cc1ccc([N+](=O)[O-])cc1NC(=O)N1CCC(c2nc(C(=O)OCc3ccccc3Br)cs2)CC1 [Example 110]	3.69	3.70
O=C(OCc1ccccc1Br)c1csc(C2CCN(C(=O)Nc3cc(C(F)(F)F)ccc3F)CC2)n1 [Example 111]	4.29^[c]; 4.29^[b]	4.29^[c]; 4.29^[b]

SMILES	logP [1]	logP [2]
Cc1ccc(Cl)cc1NC(=S)N1CCC(c2nc(C(=O)OCc3ccccc3Br)cs2)CC1 [Example 112]	4.3	4.27
O=C(OCc1ccccc1Br)c1csc(C2CCN(C(=S)Nc3cc(Cl)ccc3Cl)CC2)n1 [Example 113]	4.4	4.39
O=C(OCc1ccccc1Br)c1csc(C2CCN(C(=S)Nc3cc(F)ccc3Br)CC2)n1 [Example 114]	4.04	4.02
O=C(OCc1ccccc1Br)c1csc(C2CCN(C(=S)Nc3cc(Cl)ccc3F)CC2)n1 [Example 115]	4.15	4.14
O=C(OCc1ccccc1Br)c1csc(C2CCN(C(=S)Nc3cc(F)ccc3F)CC2)n1 [Example 116]	3.83	3.87
Cc1ccc(F)cc1NC(=S)N1CCC(c2nc(C(=O)OCc3ccccc3Br)cs2)CC1 [Example 117]	3.98^[c]; 3.98^[b]	3.98^[c]; 3.98^[b]
O=C(OCc1ccccc1Br)c1csc(C2CCN(C(=S)Nc3cc(C(F)(F)F)ccc3F)CC2)n1 [Example 118]	4.34	4.37
Cc1noc(C)c1NC(=S)N1CCC(c2nc(C(=O)OCc3ccccc3Br)cs2)CC1 [Example 119]	3.2	3.21
Cc1ccc(C)c(NC(=O)N2CCC(c3nc(C(=O)OCc4c(F)cccc4Cl)cs3)CC2)c1 [Example 120]	3.66^[b]	
Cc1ccc(C)c(NC(=O)N2CCC(c3nc(C(=O)OCc4c(F)cccc4F)cs3)CC2)c1 [Example 121]	3.38^[b]	
Cc1ccc(C)c(NC(=O)N2CCC(c3nc(C(=O)O[C@@H]4CCCC[C@H]4c4ccccc4)cs3)CC2)c1 [Example 122]	4.43^[b]	
Cc1ccc(C)c(NC(=O)N2CCC(c3nc(C(=O)O[C@H]4CCCC[C@@H]4c4ccccc4)cs3)CC2)c1 [Example 123]	4.42^[b]	
O=C(OC1CCCc2ccccc21)c1csc(C2CCN(C(=S)Nc3cc(F)ccc3F)CC2)n1 (centres unmarked) [Example 124]	4.06	3.94
Cc1ccc(Cl)cc1NC(=O)N1CCC(c2nc(C(=O)OC3CCCc4ccccc43)cs2)CC1 (centres unmarked) [Example 125]	4.27	4.14
Cc1ccc(C)c(NC(=O)N2CCC(F)(c3nc(C(=O)O[C@@H]4CCCc5ccccc54)cs3)CC2)c1 [Example 126]	4.30^[b]	
Cc1cc(C(F)(F)F)nn1CC(=O)N1CCC(F)(c2nc(C(=O)O[C@@H]3CCCc4ccccc43)cs2)CC1 [Example 127]	4.25^[b]	
Cc1ccc(C)c(NC(=O)N2CCC(c3nc(C(=O)OCc4ccccc4Cl)cs3)CC2)c1 [Example 135]	3.73^[b]	
Cc1ccc(C)c(NC(=O)N2CCC(c3nc(C(=O)OCc4ccccc4I)cs3)CC2)c1 [Example 136]	3.96^[b]	
Cc1ccc(C)c(NC(=O)N2CCC(c3nc(C(=O)OCc4c(Cl)cccc4Cl)cs3)CC2)c1 [Example 137]	3.97^[b]	
COc1cccc(F)c1C(C)OC(=O)c1csc(C2CCN(C(=O)Nc3cc(C)ccc3C)CC2)n1 (centres unmarked) [Example 138]	3.79^[b]	
Cc1ccc(C)c(NC(=O)N2CCC(c3nc(C(=O)OCc4ccncc4Cl)cs3)CC2)c1 [Example 139]	2.77^[b]	
Cc1ccc(C)c(NC(=O)N2CCC(c3nc(C(=O)OCc4ccccc4F)cs3)CC2)c1 [Example 140]	3.39^[b]	
